Measurements as given in patent US9440957B2, “Compounds and compositions for modulating EGFR Activity” (Novartis AG, priority 2012, dated 2016).
pIC50: −log10 of the molar value. Read-outs that look alike come from different tables or passages of the source.

Columns and labels:
EGFR(L858R/T790M) = biological target: T1, EGFR(L858R/T790M) (Homo sapiens, UniProt P00533, L858R/T790M); assay: EGFR biochemical assay (HTRF), IC50 determinations
T1 construct: purchased from Carna (GST-a.a. 669-1210)
Method in brief: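 HTRF kinase reaction with biotin-TK peptide at room temperature, quenched with EDTA at 60 min and detected with PT66K/SAXL after 1 h. Without preincubation, enzyme starts the reaction with compound, ATP and peptide present. With preincubation, compound, enzyme and peptide sit at room temperature for a set time before ATP is added.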

H1975 (EGFR L858/T790M) = H1975 (EGFR L858/T790M) (Homo sapiens, UniProt P00533, L858R/T790M); assay: EGFR target modulation in H1975 cell line (phospho-EGFR Y1173 ELISA); type: cell-based
H1975 (EGFR L858/T790M), sequence (P00533 25-1210 T790M/L858R): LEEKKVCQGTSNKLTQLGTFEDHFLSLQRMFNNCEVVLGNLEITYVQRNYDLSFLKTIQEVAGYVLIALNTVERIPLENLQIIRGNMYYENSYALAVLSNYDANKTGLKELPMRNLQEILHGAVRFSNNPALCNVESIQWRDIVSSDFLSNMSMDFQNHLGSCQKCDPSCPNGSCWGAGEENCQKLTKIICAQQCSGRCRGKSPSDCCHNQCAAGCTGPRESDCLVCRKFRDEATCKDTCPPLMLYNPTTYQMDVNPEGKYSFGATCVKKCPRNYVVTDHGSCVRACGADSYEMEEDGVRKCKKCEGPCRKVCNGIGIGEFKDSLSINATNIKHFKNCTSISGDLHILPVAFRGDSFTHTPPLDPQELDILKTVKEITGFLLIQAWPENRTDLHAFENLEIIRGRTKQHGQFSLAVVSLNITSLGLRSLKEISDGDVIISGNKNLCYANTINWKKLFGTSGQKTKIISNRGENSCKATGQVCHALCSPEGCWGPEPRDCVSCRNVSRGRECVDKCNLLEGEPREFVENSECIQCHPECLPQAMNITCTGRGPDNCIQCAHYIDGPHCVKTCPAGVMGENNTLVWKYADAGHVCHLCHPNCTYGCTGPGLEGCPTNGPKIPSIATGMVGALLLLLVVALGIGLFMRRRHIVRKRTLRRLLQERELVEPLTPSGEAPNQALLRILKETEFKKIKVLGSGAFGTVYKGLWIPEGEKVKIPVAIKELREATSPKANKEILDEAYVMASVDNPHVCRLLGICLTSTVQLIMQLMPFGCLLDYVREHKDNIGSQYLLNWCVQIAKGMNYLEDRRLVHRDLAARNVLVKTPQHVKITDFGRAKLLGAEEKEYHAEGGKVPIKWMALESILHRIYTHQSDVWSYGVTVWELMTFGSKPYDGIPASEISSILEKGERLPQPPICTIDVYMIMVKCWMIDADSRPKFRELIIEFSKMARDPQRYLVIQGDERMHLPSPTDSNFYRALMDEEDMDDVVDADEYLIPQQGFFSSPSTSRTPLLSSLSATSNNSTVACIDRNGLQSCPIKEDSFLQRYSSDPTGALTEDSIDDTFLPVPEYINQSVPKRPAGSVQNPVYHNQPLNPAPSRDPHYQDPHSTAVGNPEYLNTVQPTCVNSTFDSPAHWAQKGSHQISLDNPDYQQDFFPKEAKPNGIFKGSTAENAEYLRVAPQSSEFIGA
Method in brief: (§1)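 Cells grown in 10% FBS/RPMI, plated overnight at 37 °C, then treated with serially diluted compounds for 3 h. Lysates were analysed by sandwich ELISA (anti-EGFR capture, chemiluminescent readout).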

H3255 (EGFR L858R) = H3255 (EGFR L858R) (Homo sapiens, UniProt P00533, L858R); assay: EGFR target modulation in H3255 cell line (phospho-EGFR Y1173 ELISA); type: cell-based
H3255 (EGFR L858R), sequence (P00533 25-1210 L858R): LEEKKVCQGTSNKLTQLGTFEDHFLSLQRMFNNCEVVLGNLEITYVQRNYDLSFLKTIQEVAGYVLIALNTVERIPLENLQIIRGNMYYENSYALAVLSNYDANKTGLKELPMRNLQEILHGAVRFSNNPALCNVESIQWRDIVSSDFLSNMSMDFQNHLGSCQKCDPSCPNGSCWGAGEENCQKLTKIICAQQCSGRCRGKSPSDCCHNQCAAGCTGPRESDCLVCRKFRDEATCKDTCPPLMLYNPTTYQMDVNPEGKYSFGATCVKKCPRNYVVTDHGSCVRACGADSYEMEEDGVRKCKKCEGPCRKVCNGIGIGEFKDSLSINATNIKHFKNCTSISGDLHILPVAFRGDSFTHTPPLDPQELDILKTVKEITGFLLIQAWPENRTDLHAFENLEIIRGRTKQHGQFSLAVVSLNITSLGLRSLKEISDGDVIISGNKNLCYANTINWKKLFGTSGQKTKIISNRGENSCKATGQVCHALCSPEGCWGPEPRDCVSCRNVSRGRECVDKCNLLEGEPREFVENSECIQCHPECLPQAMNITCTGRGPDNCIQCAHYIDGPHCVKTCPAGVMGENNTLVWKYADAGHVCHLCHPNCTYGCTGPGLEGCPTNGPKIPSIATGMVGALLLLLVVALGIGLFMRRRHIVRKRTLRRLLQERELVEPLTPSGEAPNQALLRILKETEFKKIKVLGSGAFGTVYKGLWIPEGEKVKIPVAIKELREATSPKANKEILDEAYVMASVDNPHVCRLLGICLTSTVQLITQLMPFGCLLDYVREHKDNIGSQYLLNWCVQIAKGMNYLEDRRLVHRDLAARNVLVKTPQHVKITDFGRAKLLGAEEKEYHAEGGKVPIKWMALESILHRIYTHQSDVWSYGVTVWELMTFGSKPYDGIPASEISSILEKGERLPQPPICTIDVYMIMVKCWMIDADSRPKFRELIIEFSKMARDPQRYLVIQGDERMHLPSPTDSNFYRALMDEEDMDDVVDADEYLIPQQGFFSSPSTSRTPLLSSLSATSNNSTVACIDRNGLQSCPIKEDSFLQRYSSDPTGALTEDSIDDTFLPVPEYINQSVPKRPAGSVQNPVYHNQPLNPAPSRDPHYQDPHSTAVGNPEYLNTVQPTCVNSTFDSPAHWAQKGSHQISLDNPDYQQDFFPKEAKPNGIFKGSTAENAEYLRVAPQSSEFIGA
Method in brief: as §1

HCC827 (Del E746-A750) = HCC827 (Del E746-A750) (Homo sapiens, UniProt P00533, DEL746-750); assay: EGFR target modulation in HCC827 cell line (phospho-EGFR Y1173 ELISA); type: cell-based
HCC827 (Del E746-A750), sequence (P00533 with tags, fused parts or gaps DEL746-750): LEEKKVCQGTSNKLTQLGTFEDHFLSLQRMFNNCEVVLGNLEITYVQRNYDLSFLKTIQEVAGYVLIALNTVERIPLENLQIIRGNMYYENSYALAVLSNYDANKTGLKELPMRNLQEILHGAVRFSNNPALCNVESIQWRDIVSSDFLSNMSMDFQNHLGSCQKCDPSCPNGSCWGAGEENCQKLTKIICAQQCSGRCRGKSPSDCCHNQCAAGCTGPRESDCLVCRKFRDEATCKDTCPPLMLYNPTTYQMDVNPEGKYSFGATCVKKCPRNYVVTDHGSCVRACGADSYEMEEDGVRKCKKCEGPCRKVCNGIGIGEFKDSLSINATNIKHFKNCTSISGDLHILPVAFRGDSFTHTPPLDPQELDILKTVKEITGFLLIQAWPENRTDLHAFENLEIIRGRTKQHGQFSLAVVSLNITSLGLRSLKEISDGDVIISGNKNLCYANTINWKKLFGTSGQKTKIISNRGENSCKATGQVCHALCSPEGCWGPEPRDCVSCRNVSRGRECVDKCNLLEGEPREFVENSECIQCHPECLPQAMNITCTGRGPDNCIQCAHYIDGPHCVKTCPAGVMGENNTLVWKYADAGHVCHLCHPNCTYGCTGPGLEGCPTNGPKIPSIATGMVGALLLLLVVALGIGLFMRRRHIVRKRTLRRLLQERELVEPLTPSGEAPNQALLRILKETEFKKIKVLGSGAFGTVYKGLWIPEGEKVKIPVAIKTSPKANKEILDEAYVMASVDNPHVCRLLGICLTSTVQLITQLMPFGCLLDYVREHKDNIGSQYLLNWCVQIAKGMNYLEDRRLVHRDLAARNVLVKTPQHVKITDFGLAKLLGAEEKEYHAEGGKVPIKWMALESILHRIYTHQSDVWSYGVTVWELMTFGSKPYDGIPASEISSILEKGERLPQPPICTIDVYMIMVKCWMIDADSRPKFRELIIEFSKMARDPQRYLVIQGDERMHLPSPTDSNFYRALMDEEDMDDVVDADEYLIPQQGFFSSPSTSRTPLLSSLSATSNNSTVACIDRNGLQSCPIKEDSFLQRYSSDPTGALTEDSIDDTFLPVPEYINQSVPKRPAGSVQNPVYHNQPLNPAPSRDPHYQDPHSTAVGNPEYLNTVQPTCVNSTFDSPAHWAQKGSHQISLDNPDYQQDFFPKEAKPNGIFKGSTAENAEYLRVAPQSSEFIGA
Procedure: EGFR Target Modulation in H1975, H3255 and HCC827 Cell Lines Tissue Culture. Cells were maintained in 10% FBS/RPMI supplemented with 100 μg/ml Penicillin/Streptomycin (Hyclone #SH30236.01). […] The cells were allowed to incubate overnight in a 37° C., 5% CO2 humidified tissue culture incubator. […] The serial diluted compounds were transferred to the plate containing cells by using a 50 nl Pin Head device (Perkin Elmer) and the cells were placed back in the incubator for 3 hours. Phospho-EGFR ([…]) Target Modulation Assay. The media was reduced to 20 ul using a Bio-Tek ELx 405 SelectTM plate washer. […] The plates were shaken at 4° C. for 20 minutes. An aliquot of 25 ul from each well was transferred to pEGFR(Y1173) ELISA plates for analysis. Phospho-EGFR ([…]) ELISA. Solid white high-binding ELISA plates (Greiner #781074) were coated with 5 ug/ml anti-EGFR capture antibody (R&D Systems #AF231) overnight in 50 mM carbonate/bicarbonate pH 9.5 buffer. Plates were blocked with 1% BSA (Sigma #A7030) in PBS for 1 hour at room temperature. Wash steps were carried out with a Bio-Tek ELx405 SelectTM using 4 cycles of 100 ul TBS-T (20 mM Tris, 137 mM NaCl, 0.05% Tween-20) per well. […] Lysis was allowed to occur for 20 minutes on ice. A 25 ul aliquot was added to each well of the blocked ELISA plate and incubated overnight at 4° C. with gentle shaking. […] After washing, 1:2,000 anti-rabbit-HRP (Cell Signaling #7074) in 0.2% BSA/TBS-T was added and incubated for 1 hour at room temperature. Chemiluminescent detection was carried out with SuperSignal ELISA Pico substrate (ThermoScientific #37069). Signal was read on EnVision plate reader using built-in UltraLUM setting. Data Analysis. Control cells treated with EGF were set to 100% maximum response. […] With these parameters, the IC50's for each compound in each cell line was calculated using non-linear curve fitting analysis.

HEKn (EGFR WT) = HEKn (EGFR WT) (Homo sapiens, UniProt P00533); assay: EGFR target modulation in HEKn (EGFR-WT) cell line (phospho-EGFR Y1173 ELISA); type: cell-based; conditions: value outside parentheses
Method in brief: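 Primary neonatal human keratinocytes (EGFR WT) were exposed to serially diluted compounds for 3 h, then lysed on ice. Phospho-EGFR Y1173 was measured by chemiluminescent sandwich ELISA using anti-EGFR capture.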

[1] = biological target: human EGFR WT (NIH/3T3 cells, EGF-induced) (Homo sapiens, UniProt P00533); assay: EGFR target modulation in engineered NIH/3T3 cell lines (phospho-EGFR Y1068 AlphaLISA), EGFR WT; type: cell-based; conditions: engineered NIH/3T3 cells, read-out: NIH3T3 IC50 (μM) EGFR (WT)
Method in brief: (§2)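 Read-out is phospho-Y1068 AlphaLISA on cell lysates, with anti-total EGFR at 1 nM final equilibrated 1 h at room temperature. Cells were dosed 3 h with a 12-point 1:3 series starting from a 10 μM stock. Only the WT line received 50 ng/ml EGF for 5 min.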

[2] = biological target: human EGFR L858R (NIH/3T3 cells) (Homo sapiens, UniProt P00533, L858R); assay: EGFR target modulation in engineered NIH/3T3 cell lines (phospho-EGFR Y1068 AlphaLISA), EGFR L858R; type: cell-based; conditions: engineered NIH/3T3 cells, read-out: NIH3T3 IC50 (μM) EGFR (L858R)
Method in brief: as §2

[3] = biological target: human EGFR L858R/T790M (NIH/3T3 cells) (Homo sapiens, UniProt P00533, L858R/T790M); assay: EGFR target modulation in engineered NIH/3T3 cell lines (phospho-EGFR Y1068 AlphaLISA), EGFR L858R/T790M; type: cell-based; conditions: engineered NIH/3T3 cells, read-out: NIH3T3 IC50 (μM) EGFR (L858R/T790M)
Method in brief: as §2

[4] = EGFR (L858R/T790M) with 90 min pre-incubation, read-out: IC50 (μM) Column B
[5] = EGFR (L858R/T790M) with no pre-incubation, read-out: IC50 (μM) Column A

T1 sequence (P00533 669-1210 T790M/L858R): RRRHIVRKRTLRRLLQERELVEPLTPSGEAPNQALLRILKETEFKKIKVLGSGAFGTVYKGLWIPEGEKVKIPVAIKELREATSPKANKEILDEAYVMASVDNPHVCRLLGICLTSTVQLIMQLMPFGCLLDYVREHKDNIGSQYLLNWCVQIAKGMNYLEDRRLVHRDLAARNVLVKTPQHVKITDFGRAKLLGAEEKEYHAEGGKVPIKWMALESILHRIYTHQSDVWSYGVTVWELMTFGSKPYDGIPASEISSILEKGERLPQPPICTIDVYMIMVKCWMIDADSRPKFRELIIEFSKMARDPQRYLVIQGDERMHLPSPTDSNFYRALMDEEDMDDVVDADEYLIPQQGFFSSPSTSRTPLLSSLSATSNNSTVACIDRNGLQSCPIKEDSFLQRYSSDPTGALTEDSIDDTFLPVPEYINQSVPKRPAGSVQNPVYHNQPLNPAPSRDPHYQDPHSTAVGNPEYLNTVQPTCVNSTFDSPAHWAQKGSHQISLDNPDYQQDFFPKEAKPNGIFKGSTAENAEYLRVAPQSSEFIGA

| IC50 (EGFR(L858R/T790M); [4]) [µM] | IC50 (EGFR(L858R/T790M); [5]) [µM] | pIC50 (H1975 (EGFR L858/T790M)) | pIC50 (H3255 (EGFR L858R)) | pIC50 (HCC827 (Del E746-A750)) | pIC50 (HEKn (EGFR WT)) | IC50 [1] [µM] | IC50 [2] [µM] | IC50 [3] [µM] | Structure (SMILES) |
| --- | --- | --- | --- | --- | --- | --- | --- | --- | --- |
| < 0.001 | 0.009 | 8.05 | 8.00 | 8.40 | 6.71 | – | – | – | O=C(Nc1nc2cccc(Cl)c2n1[C@@H]1CCCCN(C(=O)/C=C/CN2CCCC2)C1)c1ccnnc1 [Example 3-8] |
| < 0.001 | 0.008 | 8.15 | 7.92 | 8.30 | 6.23 | – | – | – | Cc1cc(C(=O)Nc2nc3cccc(C)c3n2[C@@H]2CCCCN(C(=O)/C=C/CN3CCCC3)C2)ccn1 [Example 3-9] |
| – | – | 7.57 | 6.61 | 6.68 | < 5.00 | > 10 | 0.149 | 0.012 | C=CC(=O)N1CCC[C@@H](n2c(NC(=O)c3cccc(C(F)(F)F)c3)nc3cc(C)ccc32)C1 [Example 17-105] |
| < 0.001 | 0.001 | > 9.00 | 8.70 | > 9.00 | 6.89 | – | – | – | C=CC(=O)N1CCCC[C@@H](n2c(NC(=O)c3cc(C)nc(C)c3)nc3cc(CN4CC[C@H](OC)C4)cc(C)c32)C1 [Example 17-156] |
| < 0.001 | 0.003 | 8.70 | 8.15 | 8.70 | 6.51 | – | – | – | C=CC(=O)N1CCCC[C@@H](n2c(NC(=O)c3cc(C)nc(C)c3)nc3cc(CN4CC[C@@H](OC)C4)cc(C)c32)C1 [Example 17-157] |
| 0.004 | 0.054 | 7.42 | 6.84 | 7.64 | 5.34 | – | – | – | C/C=C/C(=O)N1CCCC[C@@H](n2c(NC(=O)c3cc(C)nc(C)c3)nc3cc(CN4CC[C@H](OC)C4)cc(C)c32)C1 [Example 17-162] |
| 0.005 | 0.07 | 7.37 | 7.29 | 7.96 | 5.90 | – | – | – | C/C=C/C(=O)N1CCCC[C@@H](n2c(NC(=O)c3ccnc(C)c3)nc3cc(CN4CC[C@@H](OC)C4)cc(C)c32)C1 [Example 17-163] |
| 0.005 | 0.055 | 7.24 | 7.14 | 8.05 | 5.64 | – | – | – | C/C=C/C(=O)N1CCCC[C@@H](n2c(NC(=O)c3ccnc(C)c3)nc3cc(CN4CCCC4)cc(C)c32)C1 [Example 17-164] |
| 0.004 | 0.054 | 7.41 | 7.30 | 7.51 | 5.35 | – | – | – | C/C=C/C(=O)N1CCCC[C@@H](n2c(NC(=O)c3cc(C)nc(C)c3)nc3cc(CN4CC[C@H](F)C4)cc(C)c32)C1 [Example 17-165] |
| < 0.001 | 0.018 | 7.85 | 7.70 | 8.40 | 6.06 | – | – | – | COc1cccc2nc(NC(=O)c3ccnc(C)c3)n([C@@H]3CCCCN(C(=O)/C=C/CN(C)C)C3)c12 [Example 17-176] |
| 0.006 | 0.097 | 6.93 | 6.97 | 7.42 | 5.38 | – | – | – | COc1cc2nc(NC(=O)c3ccnc(C)c3)n([C@@H]3CCCCN(C(=O)/C=C/CN(C)C)C3)c2cc1Cl [Example 17-178] |
| 0.01 | 0.218 | 6.77 | 5.69 | – | < 5.00 | > 10 | 0.226 | 0.026 | C=CC(=O)N1CCC[C@@H](n2c(NC(=O)c3cccc(C(F)(F)F)c3)nc3cc(C(N)=O)ccc32)C1 [Example 19, (R)-1-(1-acryloylpiperidin-3-yl)-2-(3-(trifluoromethyl)benzamido)-1H-benzo[d]imidazole-5-carboxamide] |
